Tests used:
Assay in all cases: Indel frequencies at the endogenous target sequences (T7E1 / deep sequencing) after ADGN/Cas9 mRNA/gRNA transfection
Type in all cases: cell-based, human
KRAS 35G>A mutant G12D = settings: for indel frequencies: deep sequencing, 72 hours after transfection, Cas9 mRNA 0.1 μg, gRNA 0.2 μg
Description: (§1) Complex formation with mRNA:gRNA: ADGN peptide/mRNA/gRNA particles were prepared at a 20:1:1 molar ratio. ADGN/Cas9mRNA/sgRNA complexes were prepared at a 20/1/1 molar ratio with 0.5 μg mRNA: 1.5 μg sgRNA and 5% Glucose or DMEM (example for 96 well plates). […] Premixed Cas9 mRNA/gRNA were prepared in sterile water at room temperature in a glass vial (1-4 ml). ADGN-peptide solution was added dropwise (1 drop/sec) under magnetic agitation at 400 rpm to obtain a 1:2 ratio, and incubated for 30 min at room temperature or 37° C. Just before transfection, 150 μl Glucose or DMEM was added and the solution was mixed under magnetic agitation at 400 rpm for 1 minute. Then the solution was incubated for 5 min at 37° C. Then the complexes was ready for cell transfection or IV administration. Prior to IV administration, complexes were diluted in sucrose 5% solution.
(§2) Transfection protocol. The following protocols are reported for 24/48/96 well plate format transfection. Cells should be trypsinized and seeded a day prior transfection Cells were cultured in Dulbecco's Modified Eagle's Medium (DMEM), supplemented with 2 mM glutamine, 1% antibiotics (streptomycin 10,000 μg/mL, penicillin, 10,000 IU/mL) and 10% (w/v) foetal calf serum (FCS), at 37° C. in a humidified atmosphere containing 5% CO2. 96 well plates seeded with 50,000 cells, the day prior transfection, grown to 60-80% confluence and set up to be at around 70% confluence at the day of transfection. Before transfection, cells are washed twice with DMEM (without FBS and pen/strep) (100 μl/well). Cells were then overlaid with 25 μl of complex solution, mixed gently and incubated for 10 min at 37° C.+5% CO2. 50 μl of fresh DMEM (without FBS and Antibiotics) was added and cells were incubated for 2 h at 37° C.+5% CO2 (time of exposure can be adjusted based on sensitivity of the cells). 250 μL of DMEM (containing 10% FCS and 1% antibiotics) were then added without removing the overlay of ADGN peptide/mRNA complexes. Cells were returned to the incubator (37° C., 5% CO2) and analyzed 48 hours to 72 hours post transfection.
(§3) Nine different gRNAs targeting KRAS 35G>A mutant G12D (gRNA35A1, gRNA35A2, gRNA35A3, gRNA35A4, gRNA35A5, gRNA35A6; gRNA35A7, gRNA35A8, gRNA35A9) were evaluated on LS513, Panc1, PK-45H, and PK1 cancer cells harboring G12D KRAS mutation. Cas9 mRNA (0.1 μg) and gRNA (0.2 μg) were associated with ADGN-peptide at molar ratio 20/1 (peptide/nucleic acid). LS513, Panc1, PK-45H, PK1, HS-68 and HT-29 cells were cultured in 48 well plate format and treated with free mRNACas9-gRNA, or ADGN/mRNACas9:gRNA complex. Indel frequencies at the endogenous target sequences was evaluated 72 hours after transfection by either T7E1 method or deep sequencing. Cell proliferation was analyzed over a period of 5 days using CellTiter Glow kits on GlowMax (Promega).
(§4) In order to confirm the specificity of sgRNAs targeting G12V, G12C or G12D KRAS mutation, gRNA35T3 targeting G12V, gRNA34T6 targeting G12C, and gRNA35A5 targeting G12D were evaluated on a large panel of cancer cells harboring different KRAS mutations including SW403, SW480, PANC1, PK-45H, PK-1, MIA-PACA, H23, H358, HT-29, HS-68 and LS513. Cas9 mRNA (0.2 μg) and gRNA (0.4 μg) were associated with ADGN peptide at molar ratio 20/1 (peptide/nucleic acid). Cells were cultured in 48 well plate format and treated with free mRNACas9-gRNA, or ADGN/mRNACas9:gRNA complex. Indel frequencies at the endogenous target sequences was evaluated 72 hours after transfection by either T7E1 method and cell proliferation was analyzed over a period of 5 days using CellTiter Glow kits on GlowMax (Promega).

wild type KRAS = settings: deep sequencing, 72 hours after transfection, Cas9 mRNA 0.1 μg, gRNA 0.2 μg
Description: as §1, §2
(§5) Nine different gRNAs targeting KRAS 35G>T mutant G12V (gRNA35T1, gRNA35T2, gRNA35T3, gRNA35T4, gRNA35T5, gRNA35T6, gRNA35T7, gRNA35T8 and gRNA35T9 (see FIG. 18)) were evaluated on SW403 and SW480 cancer cells harboring G12V KRAS mutation. Cas9 mRNA (0.15 μg) and gRNA (0.2 μg) were associated with ADGN-peptides as reported in experimental procedure. SW403, SW480 and HT-29 cells were cultured in 48 well plate format and treated with free mRNACas9-gRNA, or ADGN-100/mRNACas9:gRNA complex. Indel frequencies at the endogenous target sequences was evaluated 72 hours after transfection by either T7E1 method and by deep sequencing. Cell proliferation was analyzed over a period of 5 days using CellTiter Glow kits on GlowMax (Promega).
as §3

KRAS 34G>T mutant G12C = settings: Mia-PACA, H23, H358 vs HT29 and PANC1 cells
Description: as §1, §2
Eight different gRNAs targeting KRAS 34G>T mutant G12C (gRNA34T1, gRNA34T2, gRNA34T3, gRNA34T4, gRNA34T5, gRNA34T6, gRNA34T7 and gRNA34T8) were evaluated on MIA-PACA, H23, H358, H29 and PANC1 cells. Cas9 mRNA (0.1 μg) and gRNA (0.2 μg) were associated with ADGN peptide at molar ratio 20/1 (peptide/nucleic acid). MIA-PACA, H23, H358, PANC1 and HT29 cells were cultured in 48 well plate format and treated with free mRNACas9-gRNA, or ADGN/mRNACas9:gRNA complex. Indel frequencies at the endogenous target sequences was evaluated 72 hours after transfection by either T7E1 method or deep sequencing. Cell proliferation was analyzed over a period of 5 days using CellTiter Glow kits on GlowMax (Promega).
as §4

KRAS 35G>T mutant G12V = settings: SW403, SW480 vs wild type KRAS HT29 cells; T7E1
Description: as §1, §2, §5, §4

Row | Sequence | indel frequencies (KRAS 35G>A mutant G12D; LS513 cells) [%] | indel frequencies (KRAS 35G>A mutant G12D; PANC1 cells) [%] | indel frequencies (KRAS 35G>A mutant G12D; PK1 cells) [%] | indel frequencies (KRAS 35G>A mutant G12D; PK-45H cells) [%] | indel frequencies (wild type KRAS; HS68 cells (WT KRAS)) [%] | indel frequencies (wild type KRAS; HT-29 cells (WT KRAS)) [%] | indel editing and disruption of G12C mutant KRAS (FIG. 3A) (KRAS 34G>T mutant G12C) | disruption of G12D mutant KRAS (FIG. 2A) (KRAS 35G>A mutant G12D; G12D cancer cells vs wild type KRAS cells (HT29 or HS-68)) | indel editing and disruption of G12V mutant KRAS (FIG. 1A) (KRAS 35G>T mutant G12V)
1 | AGC TGA TGG CGT AGG CAA (guide AGCTGATGGCGTAGGCAA; chemistry not given here) [gRNA35A3, sgRNA target KRAS G12D mutation (35G>A); PAM GAG] | 9 ± 1 | 7 ± 1 | 2 ± 0.5 | 4 ± 1 | 4 ± 1 | 1 ± 0.5 | – | – | –
2 | AGC TTG TGG CGT AGG CAA (guide AGCTTGTGGCGTAGGCAA; chemistry not given here) [gRNA34T2, sgRNA target KRAS G12C mutation (34G>T); PAM GAG] | – | – | – | – | – | – | inefficient or less specific affecting wild type KRAS | – | –
3 | CTT GTG GCG TAG GCA AGAGT (guide CTTGTGGCGTAGGCAAGAGT; sgRNA, chemical modifications not given here, further chemistry not given here) [gRNA34T8, sgRNA target KRAS G12C mutation (34G>T); PAM GCC] | – | – | – | – | – | – | inefficient or less specific affecting wild type KRAS | – | –
4 | GCT GAT GGC GTA GGC AA (guide GCTGATGGCGTAGGCAA; chemistry not given here) [gRNA35A9, sgRNA target KRAS G12D mutation (35G>A); PAM GAG] | 21 ± 3 | 25 ± 3 | 34 ± 1 | 18 ± 2 | 12 ± 1 | 17 ± 3 | – | induced efficient disruption of G12D mutant KRAS | –
5 | GCT TGT GGC GTA GGC AA (guide GCTTGTGGCGTAGGCAA; sgRNA, chemical modifications not given here, further chemistry not given here) [gRNA34T7, sgRNA target KRAS G12C mutation (34G>T); PAM GAG] | – | – | – | – | – | – | inefficient or less specific affecting wild type KRAS | – | –
6 | GGTAGTTGGAGCTTGTGGCG (guide GGTAGTTGGAGCTTGTGGCG; chemistry not given here) [gRNA34T4, sgRNA target KRAS G12C mutation (34G>T); PAM TAG] | – | – | – | – | – | – | inefficient or less specific affecting wild type KRAS | – | –
7 | TGA TGG CGT AGG CAA GAGT (guide TGATGGCGTAGGCAAGAGT; chemistry not given here) [gRNA35A4, sgRNA target KRAS G12D mutation (35G>A); PAM GCC] | 5 ± 2 | 4 ± 1 | 9 ± 0.1 | 7 ± 2 | 5 ± 0.7 | 2 ± 1 | – | – | –
8 | TTG TGG TAG TTG GAG CTG A (guide TTGTGGTAGTTGGAGCTGA; chemistry not given here) [gRNA35A8, sgRNA target KRAS G12D mutation (35G>A); PAM TGG] | 7 ± 1 | 9 ± 2 | 18 ± 1 | 11 ± 1 | 6 ± 0.1 | 2 ± 0.2 | – | – | –
9 | TTG TGG TAG TTG GAG CTG T (guide TTGTGGTAGTTGGAGCTGT; chemistry not given here) [gRNA35T7, sgRNA target KRAS G12V mutation (c.35G>T); PAM TGG] | – | – | – | – | – | – | – | – | specifically induced indel editing and efficient disruption

Source: patent publication US20230167437A1, “COMPOSITIONS FOR TREATING CANCER WITH KRAS MUTATIONS AND USES THEREOF” (Aadigen, LLC, priority 2020, published 2023)
